Test results: patent publication US11840528B2 (Hoffmann-La Roche Inc., priority 2018, dated 2023)

How the values were obtained:
[1] = molecular target: T1, h-GABA-A α5β3γ2 (Homo sapiens, UniProt P18507+P31644); assay: [3H]flumazenil competition binding assay, membranes of HEK293 cells expressing GABAA receptors; conditions: displacement of [3H]-Flumazenil 0.5 nM, HEK293 cells expressing human receptors, mean of two determinations; Table 1
Summary of the method: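 Receptor source: human α5β3γ2 transiently transfected into HEK293 cells, membranes in pH 7.5 Krebs-tris. Filtration through GF/C, then scintillation counting.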

[2] = molecular target: T1, h-GABA-A α5β3γ2; assay: Two-electrode voltage clamp electrophysiology in Xenopus laevis oocytes expressing GABAA receptors, modulation of GABA EC20 current; format: cell-based; design: host or cells: Xenopus laevis oocytes micro-injected with RNA transcripts of the subunits; conditions: Table 1; for Efficacy (GABA) %: % modulation of GABA EC20 = 100*(Fold increase-1); for Fold increase h-GABA-A α5β3γ2 oocyte: test compound at approx. 30 fold its Ki, GABA at EC20
Summary of the method: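 Modulation is reported as % of the GABA EC20 current, calculated as 100*(Fold increase−1) from the peak ratio between a second GABA response carrying compound (applied at roughly 30-fold Ki) and a preceding control response. Oocytes expressing human α5β3γ2 were clamped at −80 mV at room temperature, 3–5 days after injection.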

| Structure (SMILES) | Ki [1] | Efficacy (GABA) % [2] | Fold increase h-GABA-A α5β3γ2 oocyte [2] |
| --- | --- | --- | --- |
| Cc1ccc(-c2noc(C)c2Cn2ncc(N3CCC3)cc2=O)cn1 [Example 97, 5-(azetidin-1-yl)-2-[[5-methyl-3-(6-methyl-3-pyridyl)isoxazol-4-yl]methyl]pyridazin-3-one] | 8.6 nM | 106% | 2.06 |
| CCc1onc(-c2ccc(C)nn2)c1Cn1ncc(N2CC3(CCCCO3)C2)cc1=O [Example 324, 2-((5-ethyl-3-(6-methylpyridazin-3-yl)isoxazol-4-yl)methyl)-5-(5-oxa-2-azaspiro[3.5]nonan-2-yl)pyridazin-3(2H)-one] | 20 nM | 166% | 2.66 |
| Cc1ccc(-c2noc(C)c2Cn2ncc(N3CC[C@H](O)C3)cc2=O)cn1 [Example 4, 5-[(3S)-3-hydroxypyrrolidin-1-yl]-2-[[5-methyl-3-(6-methyl-3-pyridyl)isoxazol-4-yl]methyl]pyridazin-3-one] | 8.6 nM | 145% | 2.45 |
| COc1cc(-c2cnn(Cc3c(-c4ccc(C)nc4)noc3C)c(=O)c2)ccn1 [Example 107, 5-(2-methoxypyridin-4-yl)-2-((5-methyl-3-(6-methylpyridin-3-yl)isoxazol-4-yl)methyl)pyridazin-3(2H)-one] | 3.8 nM | 70% | 1.7 |
| Cc1onc(-c2ccc(Cl)nc2)c1Cn1ncc(N2CC(OC3CCC3)C2)cc1=O [Example 253, 2-((3-(6-chloropyridin-3-yl)-5-methylisoxazol-4-yl)methyl)-5-(3-cyclobutoxyazetidin-1-yl)pyridazin-3(2H)-one] | 31 nM | 156% | 2.56 |
| Cc1onc(-c2ccc(Cl)nc2)c1Cn1ncc(N2CC(OC(F)(F)F)C2)cc1=O [Example 251, 2-((3-(6-chloropyridin-3-yl)-5-methylisoxazol-4-yl)methyl)-5-(3-(trifluoromethoxy)azetidin-1-yl)pyridazin-3(2H)-one] | 16.6 nM | 83% | 1.83 |
| Cc1ccc(-c2noc(C)c2Cn2ncc(N3CC(OCC4CC4)C3)cc2=O)nn1 [Example 185, 5-[3-(cyclopropylmethoxy)azetidin-1-yl]-2-[[5-methyl-3-(6-methylpyridazin-3-yl)isoxazol-4-yl]methyl]pyridazin-3-one] | 4.2 nM | 126% | 2.26 |
| Cc1onc(-c2ccc(Cl)nc2)c1Cn1ncc(N2CCC3(CC2)CC(F)CCO3)cc1=O (single isomer, unassigned) [Example 330] | 48.8 nM | 159% | 2.59 |
| Cc1ccc(-c2noc(C)c2Cn2ncc(N3CCN4C(=O)CCC4C3)cc2=O)cn1 (stereo not drawn) [Example 43, 2-(1-((5-methyl-3-(6-methylpyridin-3-yl)isoxazol-4-yl)methyl)-6-oxo-1,6-dihydropyridazin-4-yl)hexahydropyrrolo[1,2-a]pyrazin-6(2H)-one] | 10 nM | 174% | 2.74 |
| Cc1onc(-c2ccc(Cl)nc2)c1Cn1ncc(N2CC(OCC(F)(F)F)C2)cc1=O [Example 254, 2-((3-(6-chloropyridin-3-yl)-5-methylisoxazol-4-yl)methyl)-5-(3-(2,2,2-trifluoroethoxy)azetidin-1-yl)pyridazin-3(2H)-one] | 27.6 nM | 147% | 2.47 |
| CCOc1ccc(-c2cnn(Cc3c(-c4ccc(C)nc4)noc3C)c(=O)c2)cc1 [Example 79, 5-(4-ethoxyphenyl)-2-((5-methyl-3-(6-methylpyridin-3-yl)isoxazol-4-yl)methyl)pyridazin-3(2H)-one] | 16.1 nM | 111% | 2.11 |

Other lines, results leading:

| Ki [1] | Efficacy (GABA) % [2] | Fold increase h-GABA-A α5β3γ2 oocyte [2] | Structure (SMILES) |
| --- | --- | --- | --- |
| 3.2 nM | 178% | 2.78 | CCc1onc(-c2ccc(C)nn2)c1Cn1ncc(N2CC3(CCC(F)CO3)C2)cc1=O (single isomer, unassigned) [Example 325] |
| 1.4 nM | 189% | 2.89 | Cc1ccc(-c2noc(C)c2Cn2ncc(N3CCO[C@@H](C)C3)cc2=O)cn1 [Example 89, 2-[[5-methyl-3-(6-methyl-3-pyridyl)isoxazol-4-yl]methyl]-5-[(2S)-2-methylmorpholin-4-yl]pyridazin-3-one] |
| 4.2 nM | 86% | 1.86 | COC1CN(c2cnn(Cc3c(-c4ccc(Cl)nn4)noc3C)c(=O)c2)C1 [Example 252, 2-((3-(6-chloropyridazin-3-yl)-5-methylisoxazol-4-yl)methyl)-5-(3-methoxyazetidin-1-yl)pyridazin-3(2H)-one] |
| 36.6 nM | 108% | 2.08 | Cc1onc(-c2ccc(Cl)nc2)c1Cn1ncc(N2CC3(CCOCC3)C2)cc1=O [Example 257, 2-((3-(6-chloropyridin-3-yl)-5-methylisoxazol-4-yl)methyl)-5-(7-oxa-2-azaspiro[3.5]nonan-2-yl)pyridazin-3(2H)-one] |
| 2.7 nM | 158% | 2.58 | Cc1ccc(-c2noc(C)c2Cn2ncc(N3CC[C@@H](C)C3)cc2=O)cn1 [Example 178, 2-[[5-methyl-3-(6-methyl-3-pyridyl)isoxazol-4-yl]methyl]-5-[(3R)-3-methylpyrrolidin-1-yl]pyridazin-3-one] |
| 30 nM | 126% | 2.26 | Cc1ccc(-c2noc(C)c2Cn2ncc(N3CC4(CC(F)CCO4)C3)cc2=O)cn1 (single isomer, unassigned) [Example 273] |
| 38.8 nM | 140% | 2.4 | Cc1onc(-c2ccc(C(F)(F)F)nc2)c1Cn1ncc(N2CC(OCC(F)F)C2)cc1=O [Example 244, 5-[3-(2,2-difluoroethoxy)azetidin-1-yl]-2-[[5-methyl-3-[6-(trifluoromethyl)-3-pyridyl]isoxazol-4-yl]methyl]pyridazin-3-one] |
| 22.9 nM | 134% | 2.34 | COC1CN(c2cnn(Cc3c(-c4ccc(C)nc4)noc3C)c(=O)c2)C1 [Example 104, 5-(3-methoxyazetidin-1-yl)-2-[[5-methyl-3-(6-methyl-3-pyridyl)isoxazol-4-yl]methyl]pyridazin-3-one] |
| 9.2 nM | 210% | 3.1 | Cc1ccc(-c2noc(C)c2Cn2ncc(N3CCC(C)(O)C3)cc2=O)cn1 (stereo not drawn) [Example 118, 5-(3-hydroxy-3-methylpyrrolidin-1-yl)-2-((5-methyl-3-(6-methylpyridin-3-yl)isoxazol-4-yl)methyl)pyridazin-3(2H)-one] |
| 26 nM | 143% | 2.43 | CCCn1cc(-c2cnn(Cc3c(-c4ccc(C)nc4)noc3C)c(=O)c2)cn1 [Example 210, 2-((5-methyl-3-(6-methyl-3-pyridyl)isoxazol-4-yl)methyl)-5-(1-propylpyrazol-4-yl)pyridazin-3-one] |
| 0.7 nM | 94% | 1.94 | Cc1onc(-c2ccc(Cl)cn2)c1Cn1ncc(N2C[C@@H](C)O[C@@H](C)C2)cc1=O [Example 13, 2-((3-(5-Chloropyridin-2-yl)-5-methylisoxazol-4-yl)methyl)-5-(cis-2,6-dimethylmorpholino)pyridazin-3(2H)-one] |
| 0.6 nM | 106% | 2.06 | Cc1ccc(-c2noc(C)c2Cn2ncc(N(C)CC(C)(C)O)cc2=O)cn1 [Example 70, 5-((2-hydroxy-2-methylpropyl)(methyl)amino)-2-((5-methyl-3-(6-methylpyridin-3-yl)isoxazol-4-yl)methyl)pyridazin-3(2H)-one] |
| 3 nM | 93% | 1.93 | Cc1ccc(-c2noc(C)c2Cn2ncc(N3CC(OC(C)(C)C(F)(F)F)C3)cc2=O)nn1 [Example 264, 2-[[5-methyl-3-(6-methylpyridazin-3-yl)isoxazol-4-yl]methyl]-5-[3-(2,2,2-trifluoro-1,1-dimethyl-ethoxy)azetidin-1-yl]pyridazin-3-one] |
| 11.9 nM | 71% | 1.71 | Cc1ccc(-c2noc(C)c2Cn2ncc(-c3ccc(F)cc3)cc2=O)cn1 [Example 68, 5-(4-fluorophenyl)-2-[[5-methyl-3-(6-methylpyridin-3-yl)-1,2-oxazol-4-yl]methyl]pyridazin-3-one] |
| 4.3 nM | 100% | 2 | Cc1ccc(-c2noc(C)c2Cn2ncc(N3CC4(CCCCCO4)C3)cc2=O)nn1 [Example 316, 2-[[5-methyl-3-(6-methylpyridazin-3-yl)isoxazol-4-yl]methyl]-5-(5-oxa-2-azaspiro[3.6]decan-2-yl)pyridazin-3-one] |
